According to ChEMBL document CHEMBL1201862, “PubChem BioAssay data set” (2004):
Calls of active or inactive are those of the source.

Key:
Assay type in all cases: functional
[1] = biological target: Multidrug resistance protein CDR2 (Candida albicans (strain SC5314 / ATCC MYA-2876) (Yeast), UniProt P78595); assay: CaCDR2 efflux pump inhibitors in yeast, dose response, S. cerevisiae AD1-8u, singleplex, Cherry Pick1 hits (AID 588604)
[2] = biological target: Calcium/calmodulin-dependent protein kinase type II subunit delta (Homo sapiens, UniProt Q13557)
[3] = biological target: Serine/threonine-protein kinase 17A (Homo sapiens, UniProt Q9UEE5)
[4] = biological target: Cyclin-dependent kinase 8 (Homo sapiens, UniProt P49336); assay: Navigating the Kinome. Panel member name: CDK8
Cyclin-dependent kinase 8, sequence (P49336 whole entry): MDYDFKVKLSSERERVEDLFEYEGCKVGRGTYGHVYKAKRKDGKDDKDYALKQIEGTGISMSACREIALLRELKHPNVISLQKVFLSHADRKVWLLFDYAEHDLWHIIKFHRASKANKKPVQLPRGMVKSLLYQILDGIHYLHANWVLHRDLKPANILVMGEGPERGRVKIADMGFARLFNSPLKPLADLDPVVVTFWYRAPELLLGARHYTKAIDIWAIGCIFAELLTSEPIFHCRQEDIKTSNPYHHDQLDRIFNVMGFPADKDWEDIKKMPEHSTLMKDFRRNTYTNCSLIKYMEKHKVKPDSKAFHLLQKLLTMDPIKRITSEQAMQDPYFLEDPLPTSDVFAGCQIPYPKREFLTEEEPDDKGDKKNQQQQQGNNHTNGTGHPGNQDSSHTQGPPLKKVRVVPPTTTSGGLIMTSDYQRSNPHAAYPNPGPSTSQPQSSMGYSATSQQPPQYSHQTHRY

[5] = biological target: Homeodomain-interacting protein kinase 2 (Homo sapiens, UniProt Q9H2X6);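 note: measured within a kinome-wide kinase profiling panel, HIPK2 being one panel member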
[6] = biological target: Dual specificity protein kinase CLK4 (Homo sapiens, UniProt Q9HAZ1)
[7] = biological target: Serine/threonine-protein kinase D3 (Homo sapiens, UniProt O94806);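 note: determined within a kinase panel screen, with PRKCN as the panel member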
Serine/threonine-protein kinase D3, sequence (O94806 whole entry): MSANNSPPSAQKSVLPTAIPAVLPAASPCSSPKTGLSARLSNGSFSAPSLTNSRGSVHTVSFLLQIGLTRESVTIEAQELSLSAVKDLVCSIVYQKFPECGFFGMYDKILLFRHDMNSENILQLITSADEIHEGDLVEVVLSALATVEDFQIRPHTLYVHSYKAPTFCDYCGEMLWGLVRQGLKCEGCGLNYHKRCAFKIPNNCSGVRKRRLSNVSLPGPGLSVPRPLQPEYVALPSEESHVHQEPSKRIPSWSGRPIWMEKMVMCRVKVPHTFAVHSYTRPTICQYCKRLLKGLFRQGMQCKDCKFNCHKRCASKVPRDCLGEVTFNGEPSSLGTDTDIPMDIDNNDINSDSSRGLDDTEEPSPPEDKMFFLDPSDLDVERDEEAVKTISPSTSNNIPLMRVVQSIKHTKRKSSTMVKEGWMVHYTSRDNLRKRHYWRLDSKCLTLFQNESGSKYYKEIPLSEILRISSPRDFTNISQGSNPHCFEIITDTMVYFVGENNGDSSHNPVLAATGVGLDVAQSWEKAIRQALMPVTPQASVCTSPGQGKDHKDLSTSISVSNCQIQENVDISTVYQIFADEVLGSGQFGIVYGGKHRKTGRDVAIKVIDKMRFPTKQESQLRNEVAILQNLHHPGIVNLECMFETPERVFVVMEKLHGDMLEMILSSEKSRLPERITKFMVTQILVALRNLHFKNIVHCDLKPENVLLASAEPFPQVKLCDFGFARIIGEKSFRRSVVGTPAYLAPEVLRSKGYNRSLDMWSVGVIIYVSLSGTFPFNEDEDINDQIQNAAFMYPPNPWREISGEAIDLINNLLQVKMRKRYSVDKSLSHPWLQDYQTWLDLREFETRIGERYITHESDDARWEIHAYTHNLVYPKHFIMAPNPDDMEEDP

[8] = biological target: Death-associated protein kinase 3 (Homo sapiens, UniProt O43293);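 note: measured as one member of a kinome-wide profiling panel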
Death-associated protein kinase 3, sequence (O43293 whole entry): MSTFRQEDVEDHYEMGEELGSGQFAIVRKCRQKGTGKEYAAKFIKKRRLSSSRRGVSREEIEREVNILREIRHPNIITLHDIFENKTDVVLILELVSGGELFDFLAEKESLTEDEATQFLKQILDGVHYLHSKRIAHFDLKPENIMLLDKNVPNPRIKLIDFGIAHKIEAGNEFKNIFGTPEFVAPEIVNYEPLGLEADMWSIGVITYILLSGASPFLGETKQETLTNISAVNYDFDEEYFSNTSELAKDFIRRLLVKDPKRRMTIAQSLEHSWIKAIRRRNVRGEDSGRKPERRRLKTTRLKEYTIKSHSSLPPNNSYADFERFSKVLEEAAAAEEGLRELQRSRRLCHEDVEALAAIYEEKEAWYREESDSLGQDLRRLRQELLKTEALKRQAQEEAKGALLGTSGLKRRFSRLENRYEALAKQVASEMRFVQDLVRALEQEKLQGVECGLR

[9] = biological target: cAMP-dependent protein kinase catalytic subunit PRKX (Homo sapiens, UniProt P51817)
[10] = biological target: Glycogen synthase kinase-3 beta (Homo sapiens, UniProt P49841);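 note: value comes from a broad kinome profiling panel, with GSK3B as the panel member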
[11] = biological target: Dual specificity protein kinase CLK2 (Homo sapiens, UniProt P49760)
[12] = biological target: Serine/threonine-protein kinase pim-1 (Homo sapiens, UniProt P11309)
Serine/threonine-protein kinase pim-1, sequence (P11309 whole entry): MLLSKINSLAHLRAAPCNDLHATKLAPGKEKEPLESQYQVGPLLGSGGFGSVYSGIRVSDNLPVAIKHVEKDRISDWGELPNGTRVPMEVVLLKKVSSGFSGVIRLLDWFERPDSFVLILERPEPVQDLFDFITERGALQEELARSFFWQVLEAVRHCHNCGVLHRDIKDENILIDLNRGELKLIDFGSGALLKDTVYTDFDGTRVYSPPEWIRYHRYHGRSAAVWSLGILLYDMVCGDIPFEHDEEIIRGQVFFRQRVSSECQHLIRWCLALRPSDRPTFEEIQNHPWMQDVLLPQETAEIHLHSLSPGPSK

Misshapen-like kinase 1 = Misshapen-like kinase 1 (Homo sapiens, UniProt Q8N4C8);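 note: kinome panel screen with MINK as the panel member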
[13] = biological target: Mitogen-activated protein kinase kinase kinase kinase 5 (Homo sapiens, UniProt Q9Y4K4);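 note: measured as one member of a kinome-spanning kinase panel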
[14] = biological target: Maternal embryonic leucine zipper kinase (Homo sapiens, UniProt Q14680)
[15] = biological target: Tyrosine-protein kinase SYK (Homo sapiens, UniProt P43405)
[16] = biological target: Receptor-type tyrosine-protein kinase FLT3 (Homo sapiens, UniProt P36888);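 note: FLT3 was tested as one member of a kinome-wide kinase panel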
[17] = biological target: Mitogen-activated protein kinase kinase kinase kinase 4 (Homo sapiens, UniProt O95819)
Mitogen-activated protein kinase kinase kinase kinase 4, sequence (O95819 whole entry): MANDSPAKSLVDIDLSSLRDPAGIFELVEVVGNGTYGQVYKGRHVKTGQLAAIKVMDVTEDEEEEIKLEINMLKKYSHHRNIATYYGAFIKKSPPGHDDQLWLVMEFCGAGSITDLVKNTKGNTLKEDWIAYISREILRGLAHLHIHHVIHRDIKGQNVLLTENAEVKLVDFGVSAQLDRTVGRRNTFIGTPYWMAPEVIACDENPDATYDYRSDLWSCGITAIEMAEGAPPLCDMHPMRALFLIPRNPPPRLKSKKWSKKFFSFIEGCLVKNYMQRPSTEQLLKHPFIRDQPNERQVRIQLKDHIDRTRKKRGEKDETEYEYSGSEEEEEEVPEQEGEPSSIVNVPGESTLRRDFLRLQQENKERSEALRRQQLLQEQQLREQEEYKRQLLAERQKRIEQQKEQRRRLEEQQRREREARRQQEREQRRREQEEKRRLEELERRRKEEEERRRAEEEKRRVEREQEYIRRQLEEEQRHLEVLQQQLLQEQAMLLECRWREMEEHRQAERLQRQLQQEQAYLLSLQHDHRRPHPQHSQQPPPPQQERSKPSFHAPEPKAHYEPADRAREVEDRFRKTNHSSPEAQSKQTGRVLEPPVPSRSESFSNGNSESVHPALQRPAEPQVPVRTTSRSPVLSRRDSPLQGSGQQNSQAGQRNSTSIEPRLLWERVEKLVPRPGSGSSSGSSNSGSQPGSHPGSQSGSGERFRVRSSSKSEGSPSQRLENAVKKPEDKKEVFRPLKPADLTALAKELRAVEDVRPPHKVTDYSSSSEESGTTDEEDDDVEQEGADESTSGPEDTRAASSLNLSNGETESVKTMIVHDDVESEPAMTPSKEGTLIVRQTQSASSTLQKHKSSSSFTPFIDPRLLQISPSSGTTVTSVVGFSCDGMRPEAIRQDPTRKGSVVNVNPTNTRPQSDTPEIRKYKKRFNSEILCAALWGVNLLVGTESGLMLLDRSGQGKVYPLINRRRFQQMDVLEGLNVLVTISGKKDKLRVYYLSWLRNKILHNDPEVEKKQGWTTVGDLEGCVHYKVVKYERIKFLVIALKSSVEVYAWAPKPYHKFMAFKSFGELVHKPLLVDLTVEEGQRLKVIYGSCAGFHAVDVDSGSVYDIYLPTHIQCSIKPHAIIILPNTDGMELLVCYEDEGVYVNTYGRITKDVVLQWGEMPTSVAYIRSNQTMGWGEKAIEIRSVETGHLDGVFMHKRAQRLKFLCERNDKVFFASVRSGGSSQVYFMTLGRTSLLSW

[18] = biological target: cAMP-dependent protein kinase catalytic subunit alpha (Homo sapiens, UniProt P17612)
[19] = biological target: Serine/threonine-protein kinase PAK 4 (Homo sapiens, UniProt O96013);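 note: value obtained within a kinome profiling panel in which PAK4 was one of the panel members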
[20] = biological target: Casein kinase I isoform alpha (Homo sapiens, UniProt P48729)
Casein kinase I isoform alpha, sequence (P48729 whole entry, canonical isoform): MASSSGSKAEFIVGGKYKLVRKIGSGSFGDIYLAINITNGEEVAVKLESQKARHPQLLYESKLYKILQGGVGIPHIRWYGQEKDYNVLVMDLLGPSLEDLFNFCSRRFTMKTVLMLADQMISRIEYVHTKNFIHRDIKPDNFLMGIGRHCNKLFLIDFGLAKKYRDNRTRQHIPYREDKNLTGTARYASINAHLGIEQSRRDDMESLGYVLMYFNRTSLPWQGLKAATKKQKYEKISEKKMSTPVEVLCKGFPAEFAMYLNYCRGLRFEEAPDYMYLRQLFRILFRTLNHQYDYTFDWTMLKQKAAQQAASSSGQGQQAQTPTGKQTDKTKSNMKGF

[21] = biological target: Serine/threonine-protein kinase 3 (Homo sapiens, UniProt Q13188);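 note: measured as one member of a kinome-wide kinase panel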
[22] = biological target: Cyclin-dependent kinase 7 (Homo sapiens, UniProt P50613);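 note: value comes from a kinome-wide kinase profiling panel in which CDK7 is one member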
[23] = biological target: Tyrosine-protein kinase JAK3 (Homo sapiens, UniProt P52333)
Tyrosine-protein kinase JAK3, sequence (P52333 whole entry): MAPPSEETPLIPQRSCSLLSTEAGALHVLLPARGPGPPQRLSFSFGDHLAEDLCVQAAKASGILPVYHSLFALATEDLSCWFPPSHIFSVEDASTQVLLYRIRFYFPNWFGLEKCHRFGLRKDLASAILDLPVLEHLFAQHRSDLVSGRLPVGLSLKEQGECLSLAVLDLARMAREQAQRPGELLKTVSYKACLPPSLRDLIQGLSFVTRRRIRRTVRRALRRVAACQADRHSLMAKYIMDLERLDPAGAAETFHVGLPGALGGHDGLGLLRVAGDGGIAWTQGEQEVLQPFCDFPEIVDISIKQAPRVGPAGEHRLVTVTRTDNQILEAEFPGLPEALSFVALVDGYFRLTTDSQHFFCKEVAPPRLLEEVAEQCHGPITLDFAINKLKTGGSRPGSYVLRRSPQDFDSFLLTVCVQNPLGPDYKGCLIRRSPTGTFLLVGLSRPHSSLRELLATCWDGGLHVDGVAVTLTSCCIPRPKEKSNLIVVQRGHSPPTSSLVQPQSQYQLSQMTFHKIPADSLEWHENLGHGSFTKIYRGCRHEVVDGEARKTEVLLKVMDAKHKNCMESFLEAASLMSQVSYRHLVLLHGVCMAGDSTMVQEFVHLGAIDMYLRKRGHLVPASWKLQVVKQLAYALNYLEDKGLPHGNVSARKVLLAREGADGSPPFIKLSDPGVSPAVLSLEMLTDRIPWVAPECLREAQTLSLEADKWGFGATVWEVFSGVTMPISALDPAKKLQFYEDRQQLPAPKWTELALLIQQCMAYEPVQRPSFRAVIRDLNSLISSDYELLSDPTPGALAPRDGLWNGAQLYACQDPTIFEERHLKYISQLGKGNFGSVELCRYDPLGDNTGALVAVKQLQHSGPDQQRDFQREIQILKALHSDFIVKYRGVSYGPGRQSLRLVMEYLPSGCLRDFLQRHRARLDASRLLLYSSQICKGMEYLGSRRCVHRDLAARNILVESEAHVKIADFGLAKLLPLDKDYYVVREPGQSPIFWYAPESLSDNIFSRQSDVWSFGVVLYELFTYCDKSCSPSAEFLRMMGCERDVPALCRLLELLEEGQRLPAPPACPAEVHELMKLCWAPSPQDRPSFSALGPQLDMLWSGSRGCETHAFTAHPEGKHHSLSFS

[24] = biological target: Cyclin-dependent kinase 9 (Homo sapiens, UniProt P50750);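 note: value from the CDK9 entry of a kinome-spanning kinase panel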
[25] = biological target: Serine/threonine-protein kinase N2 (Homo sapiens, UniProt Q16513)
[26] = biological target: Melanin-concentrating hormone receptor 1 (Homo sapiens, UniProt Q99705); assay: Late-stage fluorescence-based counterscreen for antagonists of the G-protein coupled receptor 7 (GPR7): cell-based dose response assay to identify antagonists of the melanin-concentrating hormone receptor 1 (MCHR1) Set 5.
[27] = biological target: Neuropeptides B/W receptor type 1 (Homo sapiens, UniProt P48145); assay: GPR7 antagonist potency, late-stage follow-up, cell-based, fluorescence, dose response, set 5 (AID 588566)
[28] = biological target: Leukocyte tyrosine kinase receptor (Homo sapiens, UniProt P29376); assay: Navigating the Kinome. Panel member name: LTK
Focal adhesion kinase 1 = Focal adhesion kinase 1 (Homo sapiens, UniProt Q05397);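 note: measured as one member of a kinome panel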
[29] = biological target: Mitogen-activated protein kinase 14 (Homo sapiens, UniProt Q16539);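 note: part of a kinome-wide panel, MAPK14 entry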
[30] = biological target: Tyrosine-protein kinase Fyn (Homo sapiens, UniProt P06241)
[31] = biological target: Mitogen-activated protein kinase 8 (Homo sapiens, UniProt P45983);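 note: value comes from one member of a kinome-wide kinase profiling panel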
[32] = biological target: G protein-coupled receptor kinase 5 (Homo sapiens, UniProt P34947); assay: Navigating the Kinome. Panel member name: GPRK5
[33] = biological target: Serine/threonine-protein kinase TAO1 (Homo sapiens, UniProt Q7L7X3)
[34] = biological target: Glycogen synthase kinase-3 alpha (Homo sapiens, UniProt P49840);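 note: GSK3A result taken from a broad kinome-wide kinase panel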
Aurora kinase B = Aurora kinase B (Homo sapiens, UniProt Q96GD4)
[35] = biological target: ALK tyrosine kinase receptor (Homo sapiens, UniProt Q9UM73);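 note: ALK tested as one member of a kinase panel screen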
Activin receptor type-1 = Activin receptor type-1 (Homo sapiens, UniProt Q04771); assay: Navigating the Kinome. Panel member name: ACVR1
[36] = biological target: Serine/threonine-protein kinase Chk1 (Homo sapiens, UniProt O14757);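 note: measured as one member of a kinome-wide kinase profiling panel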
[37] = biological target: Tyrosine-protein kinase BTK (Homo sapiens, UniProt Q06187)
LIM domain kinase 1 = LIM domain kinase 1 (Homo sapiens, UniProt P53667); assay: Navigating the Kinome. Panel member name: LIMK1
[38] = biological target: Calcium/calmodulin-dependent protein kinase type II subunit alpha (Homo sapiens, UniProt Q9UQM7); assay: Navigating the Kinome. Panel member name: CAMK2A
[39] = biological target: Tyrosine-protein kinase Lck (Homo sapiens, UniProt P06239);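 note: lck was assayed as one member of a kinase panel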
[40] = biological target: Fibroblast growth factor receptor 1 (Homo sapiens, UniProt P11362)

CCCCSC1=N/C(=C/c2ccsc2)C(=O)N1c1ccccc1
active: EC50 [1] 10.3 µM

O=C(O)c1ccccc1Nc1ncnc(Nc2ccc3cn[nH]c3c2)n1
active: Ki [3] 0.02 µM | Ki [5] 0.158 µM | Ki [6] 0.126 µM | Ki [7] 0.398 µM | Ki [8] 0.2 µM | Ki [9] 1 µM | Ki [10] 0.0158 µM | Ki [11] 3.16 µM | Ki [12] 1 µM | Ki [13] 2.51 µM | Ki [14] 0.158 µM | Ki [15] 0.501 µM | Ki [16] 0.0631 µM | Ki [17] 2 µM | Ki [18] 3.98 µM | Ki [19] 1 µM | Ki [20] 2 µM | Ki [21] 0.501 µM | Ki [22] 1.58 µM | Ki [23] 1 µM | Ki [24] 0.2 µM | Ki [25] 2 µM
inactive: Ki [2] > 3.16 µM | Ki [4] > 3.98 µM | Ki (Misshapen-like kinase 1) > 2.51 µM

O=c1c(Cl)c(Oc2ccc3c(c2)CCO3)cnn1Cc1cccc2ccccc12
active: IC50 [27] 3.22 µM
inactive: IC50 [26] 10.4 µM

CCN(CC)CCNc1ccc(O)c2ccccc12
inactive: Ki (Focal adhesion kinase 1) > 6.31 µM | Ki [29] > 3.98 µM | Ki [4] > 3.98 µM | Ki [30] > 6.31 µM | Ki [31] > 5.01 µM | Ki [32] > 3.98 µM | Ki [33] > 6.31 µM | Ki [7] > 3.98 µM | Ki [34] > 3.98 µM | Ki (Aurora kinase B) > 3.98 µM | Ki [8] > 5.01 µM | Ki [35] > 6.31 µM | Ki (Activin receptor type-1) > 3.98 µM | Ki [37] > 6.31 µM | Ki [38] > 3.98 µM | Ki [17] > 5.01 µM | Ki [19] > 5.01 µM | Ki [20] > 3.98 µM | Ki [22] > 3.98 µM | Ki [23] > 5.01 µM | Ki [39] > 6.31 µM | Ki [40] > 3.98 µM
active: Ki [28] 2 µM | Ki [6] 2 µM | Ki [36] 0.398 µM | Ki (LIM domain kinase 1) 0.794 µM | Ki [12] 2.51 µM
